Columns and labels:
endometriotic cells = assay: Cell adhesion of endometrial stromal cells from treated animals; assay type: in vivo; conditions: animals treated 100 ug/kg orally once a day for two days; 5 subjects per group; FIG. 9
Procedure: Paired animals were treated wth Compound A (100 ug/kg) orally once a day, for two days. The animals were then sacrificed and uterus horns were removed. Myometrium was removed by scraping with a scalpel blade and remaining endometrial tissue was reduced to small fragments with scissors.
Tissue was minced into small pieces (1 to 2 mm^3) and incubated at 37° C. for 1 h with 0.1% type A collagenase. At the end of the incubation, single stromal cells were separated from large dumps of epithelium by a 10 min. period of differential sedimentation at unity gravity. The top 8 ml of medium, containing predominantly stromal cells, were then slowly removed and the cells were collected by centrifugation. […]
Polystyrene 96-well plates (Costar) were coated with 50 ul/well of 8 mg/ml extracellular matrix (ECM) (Sigma, USA), and left uncovered in a laminar flow hood overnight to allow evaporation. […] The sample fluorescence in each well was measured using a fluorescence microplate reader with filters appropriate for 480 nm excitation and 520 nm emission maxima. Results were expressed as the percentage of total cells assuming that the adhesion of cells in the control was 100%. The percentage of adhesion was determined using the formula: (Abs after being rinsed with PBS/Abs no rinse)×100%. […]

Maximum tolerated dose = assay type: in vivo, Balb/c mice

Question: With `C=C1/C(=C\C=C2/CCC[C@]3(C)C([C@@H](C)C/C=C/C(O)(CC)CC)=CC[C@@H]23)C[C@@H](O)C[C@@H]1F` [Compound A, 1-alpha-fluoro-25-hydroxy-16,23E-diene-26,27-bishomo-20-epi-cholecalciferol] as the compound, how does the “adhesion of endometriotic cells” value (endometriotic cells) read?
Answer: Its value is “dramatically reduce the adhesion”.

Question: And the MTD (Maximum tolerated dose; Balb/c, mouse, in vivo, mice, ip, above it the compound becomes hypercalcemic)?
Answer: The MTD was 0.1 mg/kg.

Question: What about the “associated toxicity compared with the other compounds tested” value (Maximum tolerated dose; Example 2) of the same compound?
Answer: Its value is “lower associated toxicity”.
